Values of other authors as cited in patent US11583508B2, “Use of mitoxantrone liposome for treating non-Hodgkin's lymphoma” (CSPC ZHONGQI PHARMACEUTICAL TECHNOLOGY (SHIJIAZHUANG) CO., …, priority 2018, dated 2023).

Test system: relapsed/refractory PTCL (RR-PTCL)
Conditions: monotherapy, second-line

SMILES	Primary endpoint: (ORR, %)
O=C(/C=C/c1cccc(S(=O)(=O)Nc2ccccc2)c1)NO [Belinostat]	25.8%
C#CCC(Cc1cnc2nc(N)nc(N)c2n1)c1ccc(C(=O)N[C@@H](CCC(=O)O)C(=O)O)cc1 (some centres unmarked) [Pralatrexate]	27%
